Data published in patent US8473035B2, “Medical imaging systems” (Beth Israel Deaconess Medical Center, priority 2003, dated 2013).

Tests used:
[1] = test system: mitochondria and/or endoplasmic reticulum; assay: partitioning of the dye into subcellular organelles; assay type: cell-based
Excerpt: (§1) More generally, IR-786 may be used for non-radioactive imaging of areas of ischemia in the living heart, or other visualization of the viability of other tissues.

blood flow in the heart = assay: imaging of blood flow in the heart of a living laboratory rat after a thoracotomy; assay type: in vivo
Excerpt: as §1

[2] = in vivo early half-life of the dye; conditions: small molecule form
Excerpt: This permits multiple injections during a single procedure.

[3] = solubility of the dye in blood

Q: With `CN1C(=CC=C2CCCC(C=CC3=[N+](C)c4ccccc4C3(C)C)=C2Cl)C(C)(C)c2ccccc21.[O-][Cl+3]([O-])([O-])[O-]` [IR-786] as the compound, how does the “partitioning into mitochondria and/or endoplasmic reticulum” value [1] read?
A: The value was “partitions efficiently into mitochondria and/or endoplasmic reticulum in a concentration-dependent manner”.

Q: What about the “imaging of blood flow in the heart” value (blood flow in the heart) of the same compound?
A: The value was “successfully applied”.

Q: With `CC1(C)C(/C=C/C=C/C=C/C=C2\N(CCCCS(=O)(=O)O)c3ccc4ccccc4c3C2(C)C)=[N+](CCCCS(=O)(=O)[O-])c2ccc3ccccc3c21` [Indocyanine green, indocyanine green] as the compound, how does the “in vivo early half-life” value [2] read?
A: The value was “shorter half-life”.

Q: What about the solubility in blood [3] of the same compound?
A: Its solubility in blood is “somewhat less soluble in blood”.
